Results on five molecules are retold here after paper PMC9738531, “Cholinesterases Inhibition, Anticancer and Antioxidant Activity of Novel Benzoxazole and Naphthoxazole Analogs” (Molecules, 2022).

One data set has as its system HCV29T (bladder cancer) cells. The experiment in a line: SRB antiproliferative assay, HCV29T. It counts as cell-based, human. The note with it: 72 h, means ± SD, read-out: IC50 HCV 29T. How it is done: (§1) The compounds were also evaluated for their antiproliferative potencies against human cancer cell lines as the potential anticancer agents. […]. The results are presented in Table 3 and expressed as IC50 (μM). In that score, the highest potency was shown by the analogs from the naphtho[1,2-d][1,3]oxazole group 8–10, particularly by derivative 10 with a chlorine atom on the benzenediol moiety.
(§2) In the antiproliferative assay in vitro, the following human cell lines were applied: T47D (breast cancer), SW707 (rectal adenocarcinoma), A549 (non-small cell lung carcinoma) from the American Type Culture Collection (Rockville, MD, USA) and HCV29T (bladder cancer) from the Fibiger Institute, Copenhagen, Denmark. Cytotoxicity assay was performed after 72 h exposure of the cultured cells at the concentration ranging from 0.1 to 100 μg/mL of the tested agents. The SRB test measuring the cell proliferation inhibition in the in vitro culture was applied. The cellular material fixed with TCA was stained with 0.4% sulforhodamine B (Chemie GmbH, Steinheim, Germany) dissolved in 1% acetic acid (POCh, Gliwice, Poland) for 30 min.
`N.N.[Cl][Pt][Cl]` [cisplatin, reference compound]: the IC50 is 2.4 ± 0.32 µM.

The same data set, now with this note: Homo sapiens, HCV29T, 72 h, means ± SD, read-out: IC50 HCV 29T.
As to `Cc1c(O)ccc(-c2nc3ccc(O)cc3o2)c1O` [Compound 2, 4-(6-Hydroxy-1,3-benzoxazol-2-yl)-2-methylbenzene-1,3-diol], the IC50 was found to be 8.34 ± 1.53 µM.

Regarding `Oc1ccc(-c2nc3ccccc3o2)c(O)c1` [Compound 1, 4-(1,3-Benzoxazol-2-yl)benzene-1,3-diol], the IC50 was 33.9 ± 4.77 µM.

Turning to `CCc1cc(-c2nc3ccc(C(=O)OC)cc3o2)c(O)cc1O` [Compound 5, Methyl 2-(5-ethyl-2,4-dihydroxyphenyl)-1,3-benzoxazole-6-carboxylate], the IC50 amounted to 3.54 ± 1.05 µM.

As for `COC(=O)c1ccc2nc(-c3ccc(O)c(C)c3O)oc2c1` [Compound 4, Methyl 2-(2,4-dihydroxy-3-methylphenyl)-1,3-benzoxazole-6-carboxylate], the half-maximal inhibitory concentration (IC50) was 4.64 ± 0.93 µM.

For a further data set, the system named is A549 (non-small cell lung carcinoma) cells. As to the kind of experiment: SRB antiproliferative assay, A549. The class given is cell-based, human. The note with it: 72 h, means ± SD. The method, then:
as §1, §2
`N.N.[Cl][Pt][Cl]` [cisplatin, reference compound] returned a half-maximal inhibitory concentration (IC50) of 3.07 ± 0.45 µM.

Staying with this data set, now noted: Homo sapiens, A549, 72 h, means ± SD.
Molecule `Cc1c(O)ccc(-c2nc3ccc(O)cc3o2)c1O` [Compound 2, 4-(6-Hydroxy-1,3-benzoxazol-2-yl)-2-methylbenzene-1,3-diol] had an IC50 of 6.81 ± 2.23 µM.

Consider `CCc1cc(-c2nc3ccc(C(=O)OC)cc3o2)c(O)cc1O` [Compound 5, Methyl 2-(5-ethyl-2,4-dihydroxyphenyl)-1,3-benzoxazole-6-carboxylate], for which half-maximal inhibition (IC50) required 3.08 ± 0.26 µM.

Regarding `COC(=O)c1ccc2nc(-c3ccc(O)c(C)c3O)oc2c1` [Compound 4, Methyl 2-(2,4-dihydroxy-3-methylphenyl)-1,3-benzoxazole-6-carboxylate], the IC50 was 3.71 ± 0.4 µM.

Another data set has as its system T47D (breast cancer) cells. The experiment in a line: SRB antiproliferative assay, T47D. It counts as cell-based, human. Conditions: 72 h, means ± SD. The method, then: as §1, §2
Regarding `N.N.[Cl][Pt][Cl]` [cisplatin, reference compound], inhibition was half-maximal at 4.01 ± 1.58 µM (IC50).

The same data set, now with this note: Homo sapiens, T47D, 72 h, means ± SD.
`Cc1c(O)ccc(-c2nc3ccc(O)cc3o2)c1O` [Compound 2, 4-(6-Hydroxy-1,3-benzoxazol-2-yl)-2-methylbenzene-1,3-diol] yielded an IC50 of 5.28 ± 0.16 µM.

For `CCc1cc(-c2nc3ccc(C(=O)OC)cc3o2)c(O)cc1O` [Compound 5, Methyl 2-(5-ethyl-2,4-dihydroxyphenyl)-1,3-benzoxazole-6-carboxylate], the concentration for half-maximal inhibition (IC50) was found to be 4.11 ± 1.27 µM.

For `COC(=O)c1ccc2nc(-c3ccc(O)c(C)c3O)oc2c1` [Compound 4, Methyl 2-(2,4-dihydroxy-3-methylphenyl)-1,3-benzoxazole-6-carboxylate], the 50% inhibitory concentration (IC50) is 3.2 ± 0.84 µM.

The next data set relates to SW707 (rectal adenocarcinoma) cells. As to the kind of experiment: SRB antiproliferative assay, SW707. The note with it: 72 h, means ± SD, read-out: IC50 SW 707. The class given is cell-based, human. The method, then:
as §1, §2
Take `N.N.[Cl][Pt][Cl]` [cisplatin, reference compound]: the 50% inhibitory concentration (IC50) was determined as 3.65 ± 0.76 µM.

Still in this data set, the particulars now being: Homo sapiens, SW707, 72 h, means ± SD, read-out: IC50 SW 707.
For the molecule `Cc1c(O)ccc(-c2nc3ccc(O)cc3o2)c1O` [Compound 2, 4-(6-Hydroxy-1,3-benzoxazol-2-yl)-2-methylbenzene-1,3-diol], the half-inhibitory concentration (IC50) amounted to 4.38 ± 1.57 µM.

As to `CCc1cc(-c2nc3ccc(C(=O)OC)cc3o2)c(O)cc1O` [Compound 5, Methyl 2-(5-ethyl-2,4-dihydroxyphenyl)-1,3-benzoxazole-6-carboxylate], the half-inhibitory concentration (IC50) was found to be 2.13 ± 0.49 µM.

On to `COC(=O)c1ccc2nc(-c3ccc(O)c(C)c3O)oc2c1` [Compound 4, Methyl 2-(2,4-dihydroxy-3-methylphenyl)-1,3-benzoxazole-6-carboxylate], for which the concentration for half-maximal inhibition (IC50) stood at 3.36 ± 0.84 µM.

Test system in the next data set: not listed separately
As to the kind of experiment: Lipophilicity by RP-18 HPLC chromatography. It counts as physicochemical. Conditions: MeOH/acetate buffer, pH 7.4. The text has this:
The lipophilicity parameter was estimated for the tested compounds as it is an important feature that influences the pharmacokinetic properties of bioactive compounds [46, 47]. Lipophilicity also determines some biological activities, such as the antiproliferative or fungistatic activity. For lipophilicity determination, reversed-phase column chromatography was used, with the octadecyl C-18 stationary phase and MeOH as the organic modifier in the isocratic conditions.
HPLC measurements were performed using a liquid chromatograph (Knauer, Berlin, Germany) with a dual pump and a UV-visible detector. The measurements were made at 254 or 320 nm at room temperature. A Eurosil Bioselect C18 (5 μm, 300 × 4.6 mm) column was applied as the stationary phase. The mobile phase consisted of different volume mixtures of 20 mM acetate buffer as the aqueous phase, and MeOH as the organic modifier (pH 7.4). The different concentrations of MeOH from 0.5 to 0.90 (v/v) range was used, depending on the structure of the compound at 0.05 intervals. The flow rate was 1 mL/min. Retention time of an unretained solute (t0) was determined by the injection of a small amount of acetone dissolved in water.
Regular changes in the retention coefficients of compounds in a function of the organic modifier MeOH content in the mobile phase are described by the Soczewiński–Wachtmeister equation [56]:log k = log kw + S φ(1)
φ—the volume fraction of organic modifier (MeOH) in the mobile phase; log kw—the intercept; S—slope of the regression curve. Log kw refers to the retention parameter of a compound with pure water as the mobile phase.
Regarding `Cc1c(O)ccc(-c2nc3ccc(O)cc3o2)c1O` [Compound 2, 4-(6-Hydroxy-1,3-benzoxazol-2-yl)-2-methylbenzene-1,3-diol], the “-S (slope of log k vs MeOH fraction)” value is 4.64.

In the case of `Oc1ccc(-c2nc3ccccc3o2)c(O)c1` [Compound 1, 4-(1,3-Benzoxazol-2-yl)benzene-1,3-diol], the “-S (slope of log k vs MeOH fraction)” value is listed as 4.358.

As for `CCc1cc(-c2nc3ccc(C(=O)OC)cc3o2)c(O)cc1O` [Compound 5, Methyl 2-(5-ethyl-2,4-dihydroxyphenyl)-1,3-benzoxazole-6-carboxylate], the “-S (slope of log k vs MeOH fraction)” value stood at 5.855.

Turning to `COC(=O)c1ccc2nc(-c3ccc(O)c(C)c3O)oc2c1` [Compound 4, Methyl 2-(2,4-dihydroxy-3-methylphenyl)-1,3-benzoxazole-6-carboxylate], the “-S (slope of log k vs MeOH fraction)” value is 5.002.

The data set is the same for the next values; noted with them: pH 7.4, extrapolation to pure water as mobile phase.
In the case of `Cc1c(O)ccc(-c2nc3ccc(O)cc3o2)c1O` [Compound 2, 4-(6-Hydroxy-1,3-benzoxazol-2-yl)-2-methylbenzene-1,3-diol], the log kw was 3.301.

Consider `Oc1ccc(-c2nc3ccccc3o2)c(O)c1` [Compound 1, 4-(1,3-Benzoxazol-2-yl)benzene-1,3-diol], for which the log kw is on record as 3.273.

As to `CCc1cc(-c2nc3ccc(C(=O)OC)cc3o2)c(O)cc1O` [Compound 5, Methyl 2-(5-ethyl-2,4-dihydroxyphenyl)-1,3-benzoxazole-6-carboxylate], the log kw is 3.774.

In the case of `COC(=O)c1ccc2nc(-c3ccc(O)c(C)c3O)oc2c1` [Compound 4, Methyl 2-(2,4-dihydroxy-3-methylphenyl)-1,3-benzoxazole-6-carboxylate], the log kw was 3.411.
